Values quoted from earlier work in article PMC4942611, “Promising Tools in Prostate Cancer Research: Selective Non-Steroidal Cytochrome P450 17A1 Inhibitors” (Scientific Reports, 2016).
Like-named read-outs stand apart in the source and are kept apart here.

Test system: CYP17A1
Parameters: method as in PMID 24775307
Details: cited from earlier work

## CC(C)[C@](O)(c1ccc2cc(OC(F)F)c(OC(F)F)cc2c1)c1c[nH]nn1 [VT-464]
read-out: IC50 hydroxylase step
  IC50: 0.67 µM
read-out: IC50 lyase step
  IC50: 0.069 µM
